Test results: paper PMC9401487 (Clinical Cancer Research, 2021)
Where two headings read alike, the source gives them in different places.

Key:
[1] = tested on: TP53-mutant triple-negative breast cancer PDX; details: cited from earlier work
pRAD50 = pRAD50 IHC H-score in paired tumor biopsies; type: in vivo, human
ATR = details: read-out: IC90 for ATR inhibition in cells; cited from earlier work

Question: With C[C@@H]1COCCN1c1cc(C2([S@](C)(=N)=O)CC2)nc(-c2cc[nH]c3nccc2-3)n1 [ceralasertib] as the compound, how does the Tumor control ([1]; carboplatin dosed concurrently with ceralasertib on day 2 or 3) read?
Answer: growth inhibition rather than tumor control

Question: And the Antitumor efficacy ([1]; ceralasertib dosed 2 days after carboplatin)?
Answer: tumor control

Question: And the Antitumor efficacy ([1]; ceralasertib dosed 3 days after carboplatin)?
Answer: tumor regression

Question: What about the “pRAD50 expression following treatment” value (pRAD50; all four evaluable paired tumor biopsies) of the same compound?
Answer: clear increases in pRAD50 expression

Question: What about the “Increase in pRAD50 expression” value (pRAD50; cohort 7 patient, baseline ATM 20%, H-scores of 20–80) of the same compound?
Answer: 400%
